Data taken from ChEMBL document CHEMBL5236616, “Chlorinated Naringenin Analogues as Potential Inhibitors of Transthyretin Amyloidogenesis” (J Med Chem, 2022).
In brackets after ≈: the same amount, converted by molar mass. Activity calls are given as the source filed them. The rule behind the calls is not given here.

How the values were obtained:
[1] = test system: Transthyretin (Homo sapiens), P02766 [V50M]; assay: Inhibition of acid mediated TTR V30M mutant aggregation (unknown origin) expressed in Escherichia coli preincubated for 30 mins followed by acid stimulation and measured after 96 hrs by fluorescence spectrophotometer analysis; conditions: time 96.5 hrs
[2] = test system: Transthyretin (Homo sapiens), P02766 [V50M]; assay: Binding affinity to TTR V30M mutant (unknown origin) expressed in Escherichia coli assessed as change in enthalpy by ITC assay
[3] = test system: Transthyretin (Homo sapiens), P02766 [V50M]; assay: Binding affinity to TTR V30M mutant (unknown origin) expressed in Escherichia coli assessed as gibbs free energy change by ITC assay
Transthyretin = Transthyretin (Homo sapiens, UniProt P02766, V50M); assay: Binding affinity to TTR V30M mutant (unknown origin) expressed in Escherichia coli by ITC assay
[4] = test system: Transthyretin (Homo sapiens), P02766 [V50M]; assay: Binding affinity to TTR V30M mutant (unknown origin) expressed in Escherichia coli assessed as change in entropy by ITC assay
[5] = molecular target: Transthyretin (Homo sapiens) (UniProt P02766); assay: Displacement of (E)-S-phenyl 3(4-hydroxy-3,5-dimethylstyryl)benzothioate from human plasma TTR at 20 uM incubated for 6 hrs by fluorescence based assay; format: cell-free
[6] = Drug concentration in rat plasma at 1.82 mg/kg, po; format: ADME, organism-based; conditions: in vivo
[7] = Drug concentration in Sprague-Dawley rat eye ball at 1 mg/kg, iv after 8 hrs by LC-MS/MS anlaysis; format: ADME, organism-based, Eyeball of camera-type eye; conditions: read-out: Ct
[8] = Permeability of compound at 10 uM after 4 hrs by LC-MS/MS based PAMPA; format: ADME; conditions: read-out: permeability
[9] = Aqueous solubility of compound at pH 1.2 incubated for 4 hrs; format: physicochemical; conditions: aqueous medium
[10] = Plasma protein binding in rat assessed as unbound fraction at 1 uM incubated for 4 hrs by rapid equilibrium dialysis method; format: ADME, cell-free
[11] = Drug concentration in Sprague-Dawley rat plasma at 1 mg/kg, iv after 8 hrs by LC-MS/MS anlaysis; format: ADME, organism-based
[12] = Ratio of drug concentration in Sprague-Dawley rat brain to plasma at 1 mg/kg, iv after 8 hrs by LC-MS/MS analysis; format: ADME, organism-based
[13] = Drug concentration in Sprague-Dawley rat eye ball at 1 mg/kg, po after 8 hrs by LC-MS/MS anlaysis; format: ADME, organism-based, Eyeball of camera-type eye; conditions: read-out: Ct
[14] = Ratio of drug concentration in Sprague-Dawley rat eye ball to plasma at 1 mg/kg, po after 8 hrs by LC-MS/MS analysis; format: ADME, organism-based
[15] = Ratio of drug concentration in Sprague-Dawley rat brain to plasma at 1 mg/kg, po after 8 hrs by LC-MS/MS analysis; format: ADME, organism-based
[16] = Drug concentration in Sprague-Dawley rat brain at 1 mg/kg, po after 8 hrs by LC-MS/MS anlaysis; format: ADME, organism-based; conditions: read-out: Ct
[17] = Ratio of drug concentration in Sprague-Dawley rat eye ball to plasma at 1 mg/kg, iv after 8 hrs by LC-MS/MS analysis; format: ADME, organism-based
[18] = Aqueous solubility of compound at pH 6.8 incubated for 4 hrs; format: physicochemical; conditions: aqueous medium
[19] = Drug concentration in Sprague-Dawley rat plasma at 1 mg/kg, po after 8 hrs by LC-MS/MS anlaysis; format: ADME, organism-based
[20] = Drug concentration in Sprague-Dawley rat brain at 1 mg/kg, iv after 8 hrs by LC-MS/MS anlaysis; format: ADME, organism-based; conditions: read-out: Ct

Row | SMILES | IC50 [1] | deltaH [2] | deltaG [3] | Kd (Transthyretin) | TdeltaS [4] | Activity [5] | further results
1 | O=C1CC(c2ccc(O)c(Cl)c2)Oc2cc(O)cc(O)c21 (stereo not given) | 5.3 µM | -13.2 kcal/mol | -8.73 kcal/mol | 0.403 µM | 4.47 kcal/mol | Active | 
2 | O=C1C[C@@H](c2ccc(O)cc2)Oc2cc(O)cc(O)c21 [NARINGENIN] | 12 µM | -10.9 kcal/mol | -7.9 kcal/mol | 1.63 µM | 1.32 kcal/mol |  | concentration [6]: 1500 nM
3 | O=C1CC(c2ccc(O)c(Cl)c2)Oc2cc(O)ccc21 (stereo not given) | 6 µM |  |  |  |  |  | 
4 | O=C1CC(c2cc(Cl)c(O)c(Cl)c2)Oc2cc(O)ccc21 (stereo not given) | 4.6 µM | -13.2 kcal/mol | -10.4 kcal/mol | 0.026 µM | 2.78 kcal/mol | Active | 
5 | O=C1CC(c2cc(Cl)c(O)c(Cl)c2)Oc2cc(O)cc(O)c21 (stereo not given) | 3.7 µM | -16.7 kcal/mol | -10.7 kcal/mol | 0.016 µM | 6 kcal/mol | Active | concentration at 8 h [7]: 150 nM; Papp at 4 h, 10 µM [8]: > 50 ×10⁻⁶ cm/s; solubility at 4 h [9]: 0.66 µM (≈ 0.225 µg/mL); Fu [10]: 0.081%; concentration at 8 h [11]: 717 nM; Kp at 8 h [12]: 0.074; concentration at 8 h [13]: 37.1 nM; Kp at 8 h [14]: 0.139; Kp at 8 h [15]: 0.058; concentration at 8 h [16]: 15.6 nM; Kp at 8 h [17]: 0.209; solubility at 4 h [18]: 28.3 µM (≈ 9.65 µg/mL); concentration at 8 h [19]: 267 nM; concentration at 8 h [20]: 53.1 nM
6 | O=C1CC(c2cc(Cl)c(O)c(Cl)c2)Oc2ccc(O)cc21 (stereo not given) | 4.3 µM |  |  |  |  |  | 
7 | O=C1CC(c2ccc(O)c(Cl)c2)Oc2cccc(O)c21 (stereo not given) | 7.2 µM |  |  |  |  |  | 
8 | O=C1CC(c2cc(Cl)c(O)c(Cl)c2)Oc2cccc(O)c21 (stereo not given) | 3.6 µM | -8.61 kcal/mol | -10.9 kcal/mol | 0.013 µM | -2.28 kcal/mol | Active | 
9 | O=C1CC(c2ccc(O)c(Cl)c2)Oc2ccc(O)cc21 (stereo not given) | 5.9 µM |  |  |  |  |  | 
10 | O=C1CC(c2cc(Cl)cc(Cl)c2)Oc2cc(O)cc(O)c21 (stereo not given) | 3.8 µM | -7.42 kcal/mol | -13.6 kcal/mol | 0.006 µM | -6.17 kcal/mol | Active | 
11 | O=C1CC(c2ccc(Cl)cc2)Oc2cc(O)cc(O)c21 (stereo not given) | 15 µM |  |  |  |  |  | 
